The melting point is the temperature of the solid-liquid transition.

As for `NC(CC(=O)N1CCCCC1)=NO`, the melting point is 179 to 181 °C.
Compound `O=C(O)c1cc(N2CCCC2=O)ccc1F` gave a melting point of 254 to 256 °C.
`CN(CC(=O)Nc1ccccc1C(F)(F)F)C(=O)CCl` came in with a melting point of 123 to 125 °C.
The value for `Cc1noc2ncc(S(=O)(=O)Cl)cc12` was 110 to 112 °C.
The value for `CC(C)CC(C)n1nccc1N` (centres undefined) was 55 to 57 °C; that for `O=C(O)CNC(=O)c1cccc(O)c1` was 174 to 176 °C; that for `O=c1n(CCCO)nc2ccccn12` was 81 to 83 °C.
Compound `Cn1ccc(C(=O)O)c1` registered a melting point of 144 to 146 °C.
With `CCN(CC)C(=O)c1ccc(NC(=O)CCl)cc1` the figure was 115 to 117 °C; with `O=C(O)c1ccc(C2SCCS2)cc1`, 166 to 168 °C; with `ON=C1CCCOc2ccc(Br)cc21`, 107 to 109 °C.
With `CNC(C(=O)O)c1cc(F)c(F)c(F)c1` (centres undefined) the figure was 247 to 249 °C; with `CC1CCN(CCCC(N)=NO)CC1`, 98 to 100 °C; with `c1cncc(CNc2nc3ccccc3[nH]2)c1`, 177 to 179 °C.
With `O=[N+]([O-])c1ccc(-c2nnc(O)o2)cc1` the figure was 249 to 251 °C.
As for `Cc1nc(C(C)C)sc1C(=O)O`, the melting point lay within 169 to 171 °C.
Consider `CCN1C(=O)CC(=O)NC1=O`, for which the melting point was 118 to 120 °C.
With `N#Cc1ccc(NCCN)nc1` the figure was 103 to 105 °C.
The compound `Cc1c[nH]c(=O)n1-c1ccc(C#N)cc1` yielded a melting point of 230 to 232 °C.
In turn, `CN(C)S(=O)(=O)CC(=O)O` had a melting point of 130 to 132 °C.
With `O=S(=O)(Cl)c1c(Cl)cccc1C(F)(F)F` the figure was 36 to 38 °C.
In the case of `O=C(O)c1ccccc1-n1ncc(Cl)c(Cl)c1=O`, the melting point was 155 to 156 °C.
With `CCCC(=O)Nc1nc2ccc(N)cc2s1` the figure was 182 to 184 °C; with `O=C(CCl)NCCc1c[nH]c2ccccc12`, 82 to 84 °C.
The value for `NS(=O)(=O)c1ccc(S(=O)(=O)N2CCC(C(=O)O)CC2)cc1` was 190 to 192 °C; that for `NC(=O)NCC1CCCNC1` (centres undefined) was 83 to 85 °C; that for `N#Cc1ccccc1N1CCOCC1` was 48 to 50 °C.
`Nc1ccc(CN2C(=O)CSC2=O)cc1` came in with a melting point of 134 to 136 °C.
`CCC(=O)c1c(C)nn(C)c1C`: the melting point lay within 50 to 52 °C.
With `CCc1[nH]ncc1C(=O)O` the figure was 229 to 231 °C.
With `CCN(CC)S(=O)(=O)c1ccc(-c2csc(N)n2)cc1` the figure was 234 to 236 °C; with `OCc1sc2ccccc2c1Cl`, 90 to 92 °C; with `COc1cc(F)c(S(=O)(=O)Cl)cc1OC`, 82 to 84 °C.
With `Cc1ccc(Cl)c2ccc(=O)[nH]c12` the figure was 254 to 256 °C; with `Cn1c(SCC(=O)O)nnc1-c1cccs1`, 205 to 207 °C; with `CN(C(N)=O)c1ccccc1`, 75 to 77 °C.
Take `N#Cc1cnn(-c2cccc(Cl)c2)c1`: the melting point was in the range of 139 to 141 °C.
With `CN(c1ccc(C(=N)N)cc1)C1CCCCC1` the figure was 122 to 124 °C; with `N#CCS(N)(=O)=O`, 100 to 102 °C; with `CC(C)(C)NC(=O)c1cccc(N)c1`, 124 to 126 °C.
With `Cc1ccc(C)c(S(=O)(=O)N2CCNCC2)c1` the figure was 108 to 110 °C; with `Nc1ccc(-n2cccn2)nc1`, 97 to 99 °C; with `CCOc1cccc(CNC(=O)CCl)c1`, 97 to 99 °C.
The value for `O=C(Nc1ccccc1C(=O)O)c1ccccc1I` was 204 to 206 °C; that for `Fc1ccc(-c2nc(CCl)cs2)cc1` was 54 to 56 °C.
As to `O=C(c1ccc(F)cc1)c1cnccn1`, the melting point was in the range of 55 to 57 °C.
The value for `N#Cc1sc2ccccc2c1N` was 155 to 157 °C; that for `CCC1CCc2[nH]c(=O)sc2C1` (centres undefined) was 144 to 146 °C; that for `COc1cc(O)ncc1Br` was 203 to 205 °C.
Regarding `Cc1nnc(CO)n1C1CC1`, the melting point was 114 to 116 °C.
The value for `Nc1ccc2nc(N)ccc2c1` was 213 to 215 °C.
For `O=C1CCC(O)(C(F)(F)F)CC1`, the melting point lay in the range of 123 to 125 °C.
`O=C(O)c1cnc2ccccn2c1=O`: the melting point lay in the range of 251 to 253 °C.
The value for `O=C(Nc1cccc([N+](=O)[O-])c1)OCC(F)(F)F` was 98 to 100 °C; that for `Cc1nc(C)c(C)c(O)n1` was 276 to 278 °C.
The value for `CC(C)n1c(C(=O)O)cc(Br)c1Br` was 127 to 129 °C; that for `O=C1NC(=O)c2cc(F)ccc21` was 183 to 185 °C; that for `Fc1ccc(-c2csc3ncnc(Cl)c23)cc1` was 139 to 141 °C.
The value for `O=C(O)Cc1ccc(OCc2ccccn2)cc1` was 153 to 155 °C; that for `O=C(O)C1(Cc2nc3ccccc3s2)CCCCC1` was 170 to 172 °C; that for `COc1cc2c(cc1OC)CN(C(N)=O)CC2` was 198 to 200 °C.
`CN1CN=C(S)NC1` yielded a melting point of 173 to 177 °C.
Compound `COc1ccc(C(=O)O)cc1S(=O)(=O)Nc1ccc(Br)cc1` came in with a melting point of 257 to 259 °C.
The value for `COc1cc(NC(C)=O)ccc1N` was 128 to 130 °C.
The value for `CNc1ccnc2ccncc12` was 223 to 225 °C; that for `CCCOc1ccc(C=CC(=O)O)cc1OC` was 187 to 189 °C; that for `NC(=O)c1cnc(Cl)cn1` was 166 to 168 °C.
With `Cc1c(Cl)cccc1-n1c(S)nnc1-c1ccncc1` the figure was 322 to 324 °C; with `Fc1ccc(-c2cnc(S)o2)cc1`, 252 to 254 °C; with `Cc1cc(N)c(C(N)=O)cc1F`, 192 to 194 °C.
Regarding `Cc1ccc(F)c2c1C(=O)C(=O)N2`, the melting point lay in the range of 204 to 206 °C.
With `CC(C)(C)Nc1ccc(C(=O)O)cc1S(=O)(=O)NC(C)(C)C` the figure was 243 to 245 °C.
With `Cc1ccc(NCCC(N)=S)cc1` the figure was 94 to 96 °C.
The value for `Nc1ccc2c(c1)oc1ccccc12` was 89 to 91 °C; that for `CCCC1(CCC)NC(=O)NC1=O` was 205 to 207 °C.
Consider `OCc1cnc(-c2ccccc2)s1`, for which the melting point was 72 to 74 °C.
With `NC1CCN(c2ccc(C(F)(F)F)cc2)C1` (centres undefined) the figure was 60 to 62 °C.
The value for `Nc1ccccc1C(=O)Nc1ccc(Cl)cn1` was 158 to 160 °C; that for `CCC1(CC)NC(=O)NC1=O` was 180 to 182 °C; that for `CC(=O)N1CCN(CC(N)=S)CC1` was 199 to 201 °C.
The compound `NNc1nc(-c2ccc(Cl)cc2)no1` displayed a melting point of 179 to 181 °C.
With `Cc1nn2c(nc(Cl)c3ccccc32)c1Cl` the figure was 176 to 178 °C; with `CCOC(=O)C(=O)c1nc2ccccc2n1C`, 116 to 118 °C.
The value for `CC(=O)c1cc2nc(C)ccc2o1` was 119 to 121 °C; that for `COc1ccc(C(=O)CCl)cc1F` was 88 to 92 °C; that for `O=C(O)Cn1cc(C2CC2)nn1` was 183 to 185 °C.
With `Clc1nc(C2CC2)nc2scc(-c3ccccc3)c12` the figure was 77 to 79 °C; with `CCOC(=O)c1cc(C)n(CC(=O)O)c1C`, 86 to 88 °C.
`C/C(=N\NC(N)=S)c1ccccc1` yielded a melting point of 114 to 116 °C.
For `CCC(CC)n1nc(C(=O)O)cc1C`, the melting point fell in the range of 110 to 112 °C.
The value for `O=[N+]([O-])c1ccc2nc(S)oc2c1` was 192 to 194 °C; that for `O=C1CC(C2CCCCN2)CN1` (centres undefined) was 62 to 64 °C.
With `O=Cc1c[nH]c2ncccc12` the figure was 211 to 213 °C.
The value for `COc1ccc(Nc2ncccc2N)cc1` was 164 to 166 °C.
As to `NNC(=O)C1Cc2ccccc2CN1Cc1ccccc1` (centres undefined), the melting point lay in the range of 128 to 130 °C.
On to `O=C(O)CCc1ncc(-c2ccccc2)o1`, for which the melting point lay in the range of 148 to 150 °C.
For the compound `CC(C)CN1C(=O)C(=O)c2ccccc21`, the melting point is 82 to 84 °C.
The value for `CC(C)(C)c1ccc(C2CCCC(O)C2)cc1` (centres undefined) was 75 to 77 °C; that for `COCCOc1ccc(Cl)cc1S(=O)(=O)Cl` was 38 to 40 °C.
The value for `CC(=O)c1cncc(F)c1` was 48 to 50 °C.
With `Cc1nnc2ccc(Br)cn12` the figure was 149 to 151 °C.
On to `O=c1c(Cl)c(Cl)cnn1-c1ccc(Cl)cc1`, for which the melting point fell in the range of 186 to 188 °C.
For `O=C(O)c1ccc2c(=O)n(-c3ccccc3F)c(=O)[nH]c2c1`, the melting point was 343 to 345 °C.
Regarding `CC(C)CC(=O)NC(C(=O)O)C(C)C` (centres undefined), the melting point is 186 to 188 °C.
The value for `COc1ccc(C(C)(C)O)c(OCc2ccccc2)c1` was 47 to 49 °C; that for `O=C(CCCl)Nc1ccc(N2CCCC2=O)cc1` was 194 to 196 °C; that for `CC(C)C(Br)C(N)=O` (centres undefined) was 131 to 133 °C.
The value for `CCc1c(C(=O)O)cnn1Cc1ccccc1` was 124 to 126 °C.
Consider `O=C(O)C1CCCN1C(=O)Cc1cn2ccsc2n1` (centres undefined), for which the melting point is 121 to 123 °C.
The value for `CC(=O)Nc1ccc2nc(N)sc2c1` was 217 to 219 °C; that for `CC1(Cc2ccc3c(c2)OCO3)NC(=O)NC1=O` (centres undefined) was 183 to 185 °C.
With `CCOc1cc(C=O)ccc1OC(F)F` the figure was 30 to 32 °C; with `Nc1ccc(-c2nnc3n2CCCC3)cc1`, 227 to 229 °C.
Regarding `O=S(=O)(NC1=NCCN1)c1cccs1`, the melting point was 173 to 175 °C.
The value for `Cc1nn(C)c2ncc(CCl)cc12` was 171 to 173 °C.
With `Cc1ncc(C(=O)O)c(Cl)c1Br` the figure was 152 to 154 °C; with `O=C(CCl)Nc1ccnn1C1CCCC1`, 76 to 78 °C.
The value for `Cc1ccc(NS(=O)(=O)c2ccc(NN)c([N+](=O)[O-])c2)c(C)c1` was 215 to 217 °C.
With `CC(C)(C)OC(=O)N1CCN(C(N)=S)CC1`, the melting point was 168 to 170 °C.
With `OCc1cc(I)c(CO)cc1I` the figure was 218 to 220 °C.
The value for `CC(C)(C)OC(=O)NC1CCCC1CN` (centres undefined) was 99 to 101 °C; that for `COc1cccc(-c2nc(C=O)cs2)c1` was 92 to 94 °C; that for `O=C(O)c1ccc2nnnn2c1` was 216 to 218 °C.
In turn, `Cn1c(CC#N)nc2ccccc21` came in with a melting point of 129 to 131 °C.

For the origin of these results see a melting point compilation (Tetko et al.).
